# Measurements from patent publication US9993570B2, “Radiolabeled tracers for poly (ADP-ribose) polymerase-1 (PARP-1), methods and uses therefor” (Washington University, priority 2014, dated 2018).
# System: head and neck cell lines SCC1 and SCC25
# Test: [18F]WC-4-138 uptake in cell culture, head and neck lines
# Format: cell-based
# Conditions: SCC1 and SCC25, incubation 5, 30 or 60 minutes, normalized to protein
# Description: In these experiments, the head and neck squamous cell carcinoma lines SCC1, SCC15, and SCC25 (ATCC) were propagated in Dulbecco's Modified Eagle's Medium (DMEM, Gibco) supplemented with 10% Fetal Bovine Serum (FBS, Gibco), Penicillin-Streptomycin (P/S, Gibco), and 100 ng/ml hydrocortisone (Sigma-Aldrich). The small cell lung cancer lines NCI-h69 and NCI-h82 (ATCC) were propagated m RPMI Medium (Gibco) supplemented with 10% FBS and 1% P/S. The human breast cancer cell line MDA-MB-231 (ATCC) was propagated in Eagle's Minimum Essential Medium (Gibco) supplemented with 5% FBS, 2% Vitamins for MEM (Gibco), 1% 200 mM L-glutamine (Gibco), 1% 10 mM Non-Essential Amino Acid (NEAA, Gibco).
# For each experimental replicate, approximately 1 μCi of [^18F]WC-4-138 was diluted in 1 ml of cell culture medium and added to 10^6 cells. After 5, 30, or 60 minutes, the medium was collected and cells were washed twice in 0.7 ml Phosphate Buffered Saline (PBS, Gibco). Adherent cells were collected by scraping the cell culture dish and transferring to a microfuge tube. Radioactivity was measured in the collected medium, PBS, or cell pellets. Protein from the cell pellet was quantified using a […]. All data were decay-corrected and normalized to total protein quantity in the cell pellet. For drug treatment studies, cells were incubated with 10 μM Olaparib or Iniparib twenty-hours prior to incubation with [^18F]WC-4-138.
# The head and neck cell lines SCC1 and SCC25 constitutively take up small amounts of tracer, registering as 0.001-0.002 μCi/μg in the cell pellet (FIG. 5A). […] Radioactivity was measured in head and neck squamous cell cancer (HNSCC) lines (SCC1 and SCC25) or small cell lung cancer (SCLC) lines (NCI-h69 and NCI-h82) after incubation with [^18F]WC-4-138 for 5, 30, or 60 minutes (n=3 at each time point). […] PARP activity was measured in HNSCC or lung SCLC cells. (FIG. 5C-D) [^18F]WC-4-138 uptake was measured in HNSCC cell lines treated with olaparib or iniparib. […]
structure (smiles),measurement,value
O=C1NCCn2c(-c3ccc(OCC[18F])cc3)nc3cccc1c32 [[^18F]12],tracer uptake in the cell pellet,0.001-0.002 μCi/μg
